Earlier results in PubChem BioAssay AID1259410 (Chemical Carcinogenesis Research Information System (CCRIS), 2018).

Tested on: rodent tumor promotion studies, tumor incidence
Experiment: CCRIS tumor promotion studies

## O=NO
Carcinogen: 1,2-DIMETHYLHYDRAZINE [540-73-8], Doses [Carcinogen]: 8 MG/KG, Doses [Promoter]: 50, 500 MG, Route [Promoter]: INJECTION, Species: MOUSE, Strain/Sex: (C57B1 X CBA)/MALE
  outcome: liver: hepatocarcinoma, hepatic hemangioendothelioma; kidney: renal adenoma; inc
Carcinogen: Diethyl nitrosamine (DEN), 55-18-5 and dimethylhydrazine (DMH), 30260-66-3, Carcinogen: Diethyl nitrosamine (DEN), 55-18-5 and dimethylhydrazine (DMH), 30260-66-3, Doses [Carcinogen]: DEN, 200 mg/kg once at -3 days, DMH, 40 mg/kg 4 injections between day 0 and wk 2, Doses [Promoter]: 0, 0.1, 0.2% in drinking water from week 2 to 29, study duration 29 wk, Doses [Promoter]: 0, 0.1, 0.2% in drinking water from week 2 to 29, study duration 29 wk, Route [Carcinogen]: Intraperitoneal (DEN) and subcutaneous (DMH), Route [Promoter]: Oral, Species: Rat, Strain/Sex: F344/Du Crj (20/group)
  outcome: liver: hepatocellular adenoma and carcinoma. colon adenoma and carcinoma. incide
Carcinogen: N-METHYL-N'-NITRO-N-NITROSOGUANIDINE, 70-25-7, Doses [Carcinogen]: 150 MG/KG BW IN DMSO:WATER (1:1) ONCE, Doses [Promoter]: 0, 0.3% IN DRINKING WATER BEGINNING 1 WK POST CARCINOGEN DOSE (STUDY DURATION: 52 WK), Route [Carcinogen]: GAVAGE, Route [Promoter]: ORAL, Species: RAT, Strain/Sex: F344/MALE
  outcome: forestomach: papilloma, squamous cell carcinoma
Carcinogen: N-bis(2-hydroxypropyl)nitrosamine (DHPN) (53609-64-6), Doses [Carcinogen]: 0.1% (w/v) in drinking water for 3 wk, then surgery for acid reflux esophagitis, study duration 34 wk, Doses [Promoter]: 0 (basal diet), 0.2% sodium nitrite, 1% ascorbic acid with 0.2% sodium nitrite, study duration 32 wk after first promote, Doses [Promoter]: 0 (basal diet), 0.2% sodium nitrite, 1% ascorbic acid with 0.2% sodium nitrite, study duration 32 wk after first promote, Route [Carcinogen]: Oral, Route [Promoter]: Oral, Species: Rat, Strain/Sex: F344/Male (24/group)
  outcome: esophagus (p1-p4): papilloma; significant only for combined treatment in p4 segm
Carcinogen: N-methyl-N'-nitro-N-nitrosoguanidine (70-25-7), Doses [Carcinogen]: 0.01% in drinking water for 10 wk for initiation of glandular stomach tumors, 100 mg/kg intragastrically after 16 hr st, Doses [Promoter]: 0.05%, 0.1%, or 0.2% in drinking water from wk 11 to end of study in combination with 0.1% or 1.0% vitamin C in diet (, Route [Carcinogen]: Oral and Intragastric, Route [Promoter]: Oral, Species: Rat, Strain/Sex: F344/Male (15/15)/(14/15)(15/15)(15/15)(15/15)(15/15)(14/15)
  outcome: forestomach: papilloma, squamous cell carcinoma increase in incidence and/or sev
Carcinogen: URETHANE, 51-79-6, Doses [Carcinogen]: 0.5 MG/G BW 1/WK FOR 2 WK, Doses [Promoter]: 0, 50 MG/L IN DRINKING WATER FOR THE DURATION OF STUDY BEGINNING 4 WK PRIOR TO CARCINOGEN TREATMENT (STUDY DURATION: 210, Route [Carcinogen]: INTRAPERITONEAL, Route [Promoter]: ORAL, Species: MOUSE, Strain/Sex: A/SNELL/FEMALE
  outcome: lung: adenoma
Carcinogen: URETHANE, 51-79-6, Doses [Carcinogen]: 0.5 MG/G BW 1/WK FOR 2 WK, Doses [Promoter]: 0, 50 MG/L IN DRINKING WATER FOR THE DURATION OF STUDY BEGINNING 4 WK PRIOR TO CARCINOGEN TREATMENT (STUDY DURATION: 210, Route [Carcinogen]: INTRAPERITONEAL, Route [Promoter]: ORAL, Species: MOUSE, Strain/Sex: C57BL X CBA/ FEMALE
  outcome: lung: adenoma
Carcinogen: URETHANE, 51-79-6, Doses [Carcinogen]: 0.5 MG/G BW/WK FOR 2 WK, Doses [Promoter]: 0, 50, 500 MG/L IN DRINKING WATER FOR THE DURATION OF STUDY BEGINNING 4 WK PRIOR TO CARCINOGEN TREATMENT (STUDY DURATION, Doses [Promoter]: 0, 50, 500 MG/L IN DRINKING WATER FOR THE DURATION OF STUDY BEGINNING 4 WK PRIOR TO CARCINOGEN TREATMENT (STUDY DURATION, Route [Carcinogen]: INTRAPERITONEAL, Route [Promoter]: ORAL, Species: MOUSE, Strain/Sex: A/SNELL
  outcome: lung: adenoma
Carcinogen: URETHANE, 51-79-6, Doses [Carcinogen]: 0.5 MG/G BW/WK FOR 2 WK, Doses [Promoter]: 0, 50, 500 MG/L IN DRINKING WATER FOR THE DURATION OF STUDY BEGINNING 4 WK PRIOR TO CARCINOGEN TREATMENT (STUDY DURATION, Doses [Promoter]: 0, 50, 500 MG/L IN DRINKING WATER FOR THE DURATION OF STUDY BEGINNING 4 WK PRIOR TO CARCINOGEN TREATMENT (STUDY DURATION, Route [Carcinogen]: INTRAPERITONEAL, Route [Promoter]: ORAL, Species: MOUSE, Strain/Sex: C57BLXCBA
  outcome: lung: adenoma

## ClC(Cl)(Cl)Cl
Carcinogen: 3'-METHYL-4-DIMETHYLAMINOAZOBENZENE, Doses [Carcinogen]: DIET, Route [Carcinogen]: ORAL, Species: RAT, Strain/Sex: FEMALE
  outcome: liver
Carcinogen: (+/-)-TRANS-7,8-DIHYDROBENZO[A]PYRENE-7,8-DIOL, 61443-57-0, Doses [Carcinogen]: 1 UG CO-ADMINISTERED WITH PROMOTER DOSE, Doses [Promoter]: 1 UG INJECTED INTO NEWLY HATCHED SAC-FRY CO-ADMINISTERED WITH CARCINOGEN DOSE (STUDY DURATION: 9 MO), Route [Carcinogen]: INJECTION, Route [Promoter]: INJECTION, Species: FISH, Strain/Sex: RAINBOW TROUT/MALE,FEMALE
  outcome: liver: tumor
Doses [Carcinogen]: 20 NG/SAC-FRY, Doses [Promoter]: 0, 1 ML/KG AT 21-DAY INTERVALS FOR A TOTAL OF 3 DOSES BEGINNING 25 D POST CARCINOGEN TREATMENT (STUDY DURATION: 3 MO), Route [Carcinogen]: INJECTION, Route [Promoter]: INTRAPERITONEAL, Species: FISH, Strain/Sex: RAINBOW TROUT
  outcome: liver: basophilic carcinoma

## CCCCCCCC/C=C\CCCCCCCC(=O)OC[C@@H](O)[C@H]1OC[C@H](O)[C@H]1O
Carcinogen: 7,12-DIMETHYLBENZ(A)ANTHRACENE, Doses [Carcinogen]: TOP, Route [Carcinogen]: DERMAL, Route [Promoter]: DERMAL, Species: MOUSE, Strain/Sex: MALE
  outcome: integumentary system (skin)
